Experimental data from PubChem BioAssay (NCI).
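Method: 48-hour compound exposure of cells in 96-well plates, five concentrations, linear interpolation of endpoints. At the TGI there is no net growth.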

How the values were obtained:
Experiment in all cases: NCI tumour cell line growth inhibition, 48 h
HCC-2998 colon = tested on: HCC-2998 colon
OVCAR-4 ovarian = tested on: OVCAR-4 ovarian
HT29 colon = tested on: HT29 colon
DLD-1 colon = tested on: DLD-1 colon
DMS 273 small cell lung = tested on: DMS 273 small cell lung
M19-MEL melanoma = tested on: M19-MEL melanoma
SR leukemia = tested on: SR leukemia
CAKI-1 renal = tested on: CAKI-1 renal
U251 CNS = tested on: U251 CNS
K-562 leukemia = tested on: K-562 leukemia
NCI-H522 lung = tested on: NCI-H522 lung
A498 renal = tested on: A498 renal
SNB-78 CNS = tested on: SNB-78 CNS
MCF7 breast = tested on: MCF7 breast
LXFL 529 NSCLC = tested on: LXFL 529 NSCLC
A549 NSCLC = tested on: A549 NSCLC
HCT-116 colon = tested on: HCT-116 colon
BT-549 breast = tested on: BT-549 breast
MDA-MB-435 = tested on: MDA-MB-435
UO-31 renal = tested on: UO-31 renal
SF-295 CNS = tested on: SF-295 CNS
MOLT-4 leukemia = tested on: MOLT-4 leukemia
SNB-75 CNS = tested on: SNB-75 CNS
DU-145 prostate = tested on: DU-145 prostate
OVCAR-5 ovarian = tested on: OVCAR-5 ovarian
CCRF-CEM leukemia = tested on: CCRF-CEM leukemia
NCI/ADR-RES ovarian = tested on: NCI/ADR-RES ovarian
UACC-257 melanoma = tested on: UACC-257 melanoma
SF-268 CNS = tested on: SF-268 CNS
SK-MEL-2 melanoma = tested on: SK-MEL-2 melanoma
RPMI-8226 leukemia = tested on: RPMI-8226 leukemia
SK-OV-3 ovarian = tested on: SK-OV-3 ovarian
KM12 colon = tested on: KM12 colon
HOP-92 NSCLC = tested on: HOP-92 NSCLC
M14 melanoma = tested on: M14 melanoma
SNB-19 CNS = tested on: SNB-19 CNS
SN12C renal = tested on: SN12C renal
MDA-N = tested on: MDA-N
HL-60(TB) leukemia = tested on: HL-60(TB) leukemia
SK-MEL-28 melanoma = tested on: SK-MEL-28 melanoma
MALME-3M melanoma = tested on: MALME-3M melanoma
MDA-MB-231 breast = tested on: MDA-MB-231 breast
DMS 114 small cell lung = tested on: DMS 114 small cell lung
NCI-H23 lung = tested on: NCI-H23 lung
XF 498 CNS = tested on: XF 498 CNS
OVCAR-8 ovarian = tested on: OVCAR-8 ovarian
RXF 393 renal = tested on: RXF 393 renal
LOX IMVI melanoma = tested on: LOX IMVI melanoma
EKVX NSCLC = tested on: EKVX NSCLC
COLO 205 colon = tested on: COLO 205 colon
PC-3 prostate = tested on: PC-3 prostate
HS 578T breast = tested on: HS 578T breast
IGROV1 ovarian = tested on: IGROV1 ovarian
786-0 renal = tested on: 786-0 renal
NCI-H460 lung = tested on: NCI-H460 lung
ACHN renal = tested on: ACHN renal
SW-620 colon = tested on: SW-620 colon
SK-MEL-5 melanoma = tested on: SK-MEL-5 melanoma
HCT-15 colon = tested on: HCT-15 colon
UACC-62 melanoma = tested on: UACC-62 melanoma
OVCAR-3 ovarian = tested on: OVCAR-3 ovarian
T-47D breast = tested on: T-47D breast
NCI-H226 lung = tested on: NCI-H226 lung
KM20L2 colon = tested on: KM20L2 colon
TK-10 renal = tested on: TK-10 renal
SF-539 CNS = tested on: SF-539 CNS
RXF-631 renal = tested on: RXF-631 renal
HOP-62 NSCLC = tested on: HOP-62 NSCLC

CN(C)CCNc1ccc2nnn3c4ccccc4c(=O)c1c23
TGI (HCC-2998 colon): 13.1 µM
TGI (OVCAR-4 ovarian): 9.44 µM
TGI (HT29 colon): 11 µM
TGI (DLD-1 colon): 22.9 µM
TGI (DMS 273 small cell lung): 11.5 µM
TGI (M19-MEL melanoma): 9.42 µM
TGI (SR leukemia): > 32.8 µM
TGI (CAKI-1 renal): 18.5 µM
TGI (U251 CNS): 7.63 µM
TGI (K-562 leukemia): 18.9 µM
TGI (NCI-H522 lung): 8.31 µM
TGI (A498 renal): 8.96 µM
TGI (SNB-78 CNS): 30.5 µM
TGI (MCF7 breast): 25.2 µM
TGI (LXFL 529 NSCLC): 17.5 µM
TGI (A549 NSCLC): 6.56 µM
TGI (HCT-116 colon): 13.7 µM
TGI (BT-549 breast): 32.3 µM
TGI (MDA-MB-435): 13.8 µM
TGI (UO-31 renal): 8.6 µM
TGI (SF-295 CNS): 13.8 µM
TGI (MOLT-4 leukemia): 21 µM
TGI (SNB-75 CNS): 10.4 µM
TGI (DU-145 prostate): 9.68 µM
TGI (OVCAR-5 ovarian): 11.4 µM
TGI (CCRF-CEM leukemia): 20.6 µM
TGI (NCI/ADR-RES ovarian): 9.82 µM
TGI (UACC-257 melanoma): 11.4 µM
TGI (SF-268 CNS): 18.8 µM
TGI (SK-MEL-2 melanoma): 13.9 µM
TGI (RPMI-8226 leukemia): 23.9 µM
TGI (SK-OV-3 ovarian): 33.2 µM
TGI (KM12 colon): 13.9 µM
TGI (HOP-92 NSCLC): 9.6 µM
TGI (M14 melanoma): 9.03 µM
TGI (SNB-19 CNS): 34.8 µM
TGI (SN12C renal): 19.9 µM
TGI (MDA-N): 12.4 µM
TGI (HL-60(TB) leukemia): 15.7 µM
TGI (SK-MEL-28 melanoma): 15.1 µM
TGI (MALME-3M melanoma): 10.4 µM
TGI (MDA-MB-231 breast): 15.3 µM
TGI (DMS 114 small cell lung): 12.7 µM
TGI (NCI-H23 lung): 11.6 µM
TGI (XF 498 CNS): 19.5 µM
TGI (OVCAR-8 ovarian): 9.91 µM
TGI (RXF 393 renal): 16.6 µM
TGI (LOX IMVI melanoma): 3.72 µM
TGI (EKVX NSCLC): 13.4 µM
TGI (COLO 205 colon): 5.9 µM
TGI (PC-3 prostate): 7.79 µM
TGI (HS 578T breast): 9.8 µM
TGI (IGROV1 ovarian): 26.5 µM
TGI (786-0 renal): 16.5 µM
TGI (NCI-H460 lung): 7.16 µM
TGI (ACHN renal): 7.01 µM
TGI (SW-620 colon): 11 µM
TGI (SK-MEL-5 melanoma): 5.35 µM
TGI (HCT-15 colon): 13 µM
TGI (UACC-62 melanoma): 11.6 µM
TGI (OVCAR-3 ovarian): 12.8 µM
TGI (T-47D breast): 32.3 µM
TGI (NCI-H226 lung): 5.28 µM
TGI (KM20L2 colon): 11.6 µM
TGI (TK-10 renal): 12.7 µM
TGI (SF-539 CNS): 15.6 µM
TGI (RXF-631 renal): 10.3 µM
TGI (HOP-62 NSCLC): 14.2 µM

COC1=CC(=Nc2c(Cl)cc(Cl)cc2OC(=O)c2ccc([N+](=O)[O-])cc2)C=C(OC)C1=O
TGI (HCC-2998 colon): 32.4 µM
TGI (OVCAR-4 ovarian): 21.9 µM
TGI (HT29 colon): 33.5 µM
TGI (DLD-1 colon): 30 µM
TGI (DMS 273 small cell lung): 30.5 µM
TGI (M19-MEL melanoma): 10.8 µM
TGI (SR leukemia): 15.3 µM
TGI (CAKI-1 renal): 31.7 µM
TGI (U251 CNS): 27.1 µM
TGI (K-562 leukemia): 27 µM
TGI (NCI-H522 lung): 23.6 µM
TGI (SNB-78 CNS): 56.9 µM
TGI (LXFL 529 NSCLC): 18.5 µM
TGI (A549 NSCLC): 23.4 µM
TGI (HCT-116 colon): 18.9 µM
TGI (UO-31 renal): 24.3 µM
TGI (SF-295 CNS): 23.7 µM
TGI (MOLT-4 leukemia): 26.7 µM
TGI (SNB-75 CNS): 27.8 µM
TGI (OVCAR-5 ovarian): 33.7 µM
TGI (CCRF-CEM leukemia): > 25.9 µM
TGI (UACC-257 melanoma): 24.2 µM
TGI (SF-268 CNS): 23.2 µM
TGI (SK-MEL-2 melanoma): 29.9 µM
TGI (RPMI-8226 leukemia): > 39.1 µM
TGI (SK-OV-3 ovarian): 30.8 µM
TGI (KM12 colon): 29.4 µM
TGI (HOP-92 NSCLC): 14.8 µM
TGI (M14 melanoma): 25.8 µM
TGI (SNB-19 CNS): 30 µM
TGI (SN12C renal): 24.3 µM
TGI (HL-60(TB) leukemia): 12.1 µM
TGI (SK-MEL-28 melanoma): 30.5 µM
TGI (MALME-3M melanoma): 28.9 µM
TGI (DMS 114 small cell lung): 8.52 µM
TGI (NCI-H23 lung): 22.9 µM
TGI (XF 498 CNS): 21.5 µM
TGI (OVCAR-8 ovarian): 20.2 µM
TGI (RXF 393 renal): 24.6 µM
TGI (LOX IMVI melanoma): 5.67 µM
TGI (EKVX NSCLC): 29.5 µM
TGI (COLO 205 colon): 33.6 µM
TGI (IGROV1 ovarian): 31.2 µM
TGI (786-0 renal): 28 µM
TGI (NCI-H460 lung): 31.3 µM
TGI (ACHN renal): 22.6 µM
TGI (SW-620 colon): 26.8 µM
TGI (SK-MEL-5 melanoma): 20.4 µM
TGI (HCT-15 colon): 20.8 µM
TGI (UACC-62 melanoma): 15.6 µM
TGI (OVCAR-3 ovarian): 20.9 µM
TGI (NCI-H226 lung): 28.7 µM
TGI (KM20L2 colon): 32.8 µM
TGI (TK-10 renal): 37.4 µM
TGI (SF-539 CNS): 23.4 µM
TGI (RXF-631 renal): 11.1 µM
TGI (HOP-62 NSCLC): 36.2 µM
